Entries after “also recorded” stand apart in the source; their conditions may differ. Read-outs that look alike come from different tables or passages of the source.
Tests used:
[1] = molecular target: T1, Histamine 2 Receptor (Homo sapiens, UniProt P25021); assay: High-throughput profiling, binding at 10 μM
Source text: (§1) It was specifically designed to provide information not only on potential limitations of drug candidates, but also for off-target activity identification. […] In a further extension of this study, functional studies were done on most of these receptors.

[2] = molecular target: T2, 5HT2A receptor (Homo sapiens, UniProt P28223); assay: High-throughput profiling, binding at 10 μM
T2 sequence (P28223 whole entry): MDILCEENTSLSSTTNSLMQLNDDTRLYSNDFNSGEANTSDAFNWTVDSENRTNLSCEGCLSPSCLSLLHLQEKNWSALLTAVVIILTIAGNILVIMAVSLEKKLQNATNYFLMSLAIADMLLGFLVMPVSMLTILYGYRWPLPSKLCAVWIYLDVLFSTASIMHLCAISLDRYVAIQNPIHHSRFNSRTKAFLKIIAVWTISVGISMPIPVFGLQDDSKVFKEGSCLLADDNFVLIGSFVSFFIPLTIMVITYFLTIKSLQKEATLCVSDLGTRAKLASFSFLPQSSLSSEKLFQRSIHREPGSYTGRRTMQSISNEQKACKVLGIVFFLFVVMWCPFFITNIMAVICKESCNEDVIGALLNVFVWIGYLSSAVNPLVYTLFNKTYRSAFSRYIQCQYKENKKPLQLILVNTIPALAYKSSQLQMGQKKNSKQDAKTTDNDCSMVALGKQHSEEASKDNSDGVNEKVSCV
Source text: as §1

[3] = molecular target: M2 mAChR (Homo sapiens, UniProt P08172); assay: High-throughput profiling, binding at 10 μM
Sequence of M2 mAChR (P08172 whole entry): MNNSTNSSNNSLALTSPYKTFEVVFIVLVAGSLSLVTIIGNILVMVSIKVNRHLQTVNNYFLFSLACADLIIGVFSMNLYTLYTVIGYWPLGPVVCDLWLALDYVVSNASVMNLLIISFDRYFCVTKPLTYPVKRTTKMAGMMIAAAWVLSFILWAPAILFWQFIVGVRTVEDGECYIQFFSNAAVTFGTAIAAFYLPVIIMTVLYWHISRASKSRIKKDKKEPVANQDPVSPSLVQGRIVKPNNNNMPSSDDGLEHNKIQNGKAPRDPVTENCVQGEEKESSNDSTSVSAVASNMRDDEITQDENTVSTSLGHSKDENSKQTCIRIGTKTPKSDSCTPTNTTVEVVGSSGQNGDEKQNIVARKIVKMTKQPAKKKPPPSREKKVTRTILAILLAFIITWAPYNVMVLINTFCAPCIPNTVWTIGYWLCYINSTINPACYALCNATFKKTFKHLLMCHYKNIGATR
Source text: as §1

[4] = molecular target: T3, 5HT2B Receptor (Homo sapiens, UniProt P41595); assay: High-throughput profiling, binding at 10 μM
T3 sequence (P41595 whole entry): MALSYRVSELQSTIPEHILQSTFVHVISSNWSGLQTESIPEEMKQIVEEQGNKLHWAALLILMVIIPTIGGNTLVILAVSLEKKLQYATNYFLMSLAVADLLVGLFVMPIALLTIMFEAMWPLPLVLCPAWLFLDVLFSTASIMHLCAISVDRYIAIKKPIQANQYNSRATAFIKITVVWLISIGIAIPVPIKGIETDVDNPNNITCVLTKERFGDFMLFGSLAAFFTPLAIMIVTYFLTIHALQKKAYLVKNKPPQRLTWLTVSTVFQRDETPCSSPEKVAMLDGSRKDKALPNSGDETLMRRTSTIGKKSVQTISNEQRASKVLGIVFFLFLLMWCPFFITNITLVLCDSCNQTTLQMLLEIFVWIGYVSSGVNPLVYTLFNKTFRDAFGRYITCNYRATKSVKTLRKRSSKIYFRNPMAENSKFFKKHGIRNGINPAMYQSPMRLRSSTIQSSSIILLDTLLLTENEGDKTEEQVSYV
Source text: as §1

[5] = test system: Sigma Receptor; assay: High-throughput profiling, binding at 10 μM
Source text: as §1

[6] = molecular target: T4, Mu Receptor (Homo sapiens, UniProt P35372); assay: High-throughput profiling, binding at 10 μM
T4 sequence (P35372 whole entry): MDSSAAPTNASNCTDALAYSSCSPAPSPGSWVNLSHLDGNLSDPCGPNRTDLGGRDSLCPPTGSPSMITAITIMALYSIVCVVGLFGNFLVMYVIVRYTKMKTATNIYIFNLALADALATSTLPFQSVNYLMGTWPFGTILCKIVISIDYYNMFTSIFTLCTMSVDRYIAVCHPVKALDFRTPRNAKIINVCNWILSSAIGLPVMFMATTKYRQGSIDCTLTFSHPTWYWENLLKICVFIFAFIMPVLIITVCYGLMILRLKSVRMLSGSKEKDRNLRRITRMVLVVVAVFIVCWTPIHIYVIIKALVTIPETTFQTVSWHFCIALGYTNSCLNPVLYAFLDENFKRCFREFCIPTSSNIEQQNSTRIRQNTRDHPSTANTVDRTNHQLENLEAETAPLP
Source text: as §1

[7] = molecular target: T5, 5HT2C Receptor (Homo sapiens, UniProt P28335); assay: High-throughput profiling, binding at 10 μM
T5 sequence (P28335 33-458): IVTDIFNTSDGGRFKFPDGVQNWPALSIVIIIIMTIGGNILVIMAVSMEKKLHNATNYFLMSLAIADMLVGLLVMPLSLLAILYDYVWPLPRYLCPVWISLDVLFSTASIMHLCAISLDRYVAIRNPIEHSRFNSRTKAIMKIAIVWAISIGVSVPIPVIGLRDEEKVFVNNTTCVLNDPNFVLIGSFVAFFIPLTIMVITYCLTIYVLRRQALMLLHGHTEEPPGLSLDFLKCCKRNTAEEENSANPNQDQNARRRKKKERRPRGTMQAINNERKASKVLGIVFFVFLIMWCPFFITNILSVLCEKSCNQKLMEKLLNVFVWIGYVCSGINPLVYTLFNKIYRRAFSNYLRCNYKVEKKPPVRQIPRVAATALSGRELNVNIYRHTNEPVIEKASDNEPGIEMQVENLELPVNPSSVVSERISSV
Source text: as §1

[8] = molecular target: 5HT Transporter (Homo sapiens, UniProt P31645); assay: High-throughput profiling, binding at 10 μM
Sequence of 5HT Transporter (P31645 whole entry, species assumed): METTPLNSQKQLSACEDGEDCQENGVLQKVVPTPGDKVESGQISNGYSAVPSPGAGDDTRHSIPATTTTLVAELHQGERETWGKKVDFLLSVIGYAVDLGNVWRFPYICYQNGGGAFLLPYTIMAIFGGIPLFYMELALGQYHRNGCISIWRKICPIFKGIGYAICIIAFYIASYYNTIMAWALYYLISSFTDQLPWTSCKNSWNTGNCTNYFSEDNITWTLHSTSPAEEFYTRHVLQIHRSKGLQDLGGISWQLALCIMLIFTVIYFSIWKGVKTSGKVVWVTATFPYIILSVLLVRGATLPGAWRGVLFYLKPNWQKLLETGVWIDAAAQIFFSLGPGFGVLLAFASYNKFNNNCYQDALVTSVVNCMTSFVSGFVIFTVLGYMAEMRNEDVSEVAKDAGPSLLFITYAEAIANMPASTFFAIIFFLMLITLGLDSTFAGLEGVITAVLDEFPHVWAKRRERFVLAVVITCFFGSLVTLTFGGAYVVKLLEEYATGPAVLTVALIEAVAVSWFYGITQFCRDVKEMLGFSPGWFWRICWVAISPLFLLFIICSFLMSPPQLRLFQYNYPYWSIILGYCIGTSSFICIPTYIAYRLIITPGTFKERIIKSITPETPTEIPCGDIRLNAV
Source text: as §1

[9] = molecular target: T6, M1 mAChR (Homo sapiens, UniProt P11229); assay: Intracellular Ca2+ mobilization (Fluo-4 NW) in cells stably transfected with M1 mAChR; format: cell-based; parameters: expressed in transfected cells; conditions: 100 μM; mobilization of intracellular Ca ions
T6 sequence (P11229 1-460): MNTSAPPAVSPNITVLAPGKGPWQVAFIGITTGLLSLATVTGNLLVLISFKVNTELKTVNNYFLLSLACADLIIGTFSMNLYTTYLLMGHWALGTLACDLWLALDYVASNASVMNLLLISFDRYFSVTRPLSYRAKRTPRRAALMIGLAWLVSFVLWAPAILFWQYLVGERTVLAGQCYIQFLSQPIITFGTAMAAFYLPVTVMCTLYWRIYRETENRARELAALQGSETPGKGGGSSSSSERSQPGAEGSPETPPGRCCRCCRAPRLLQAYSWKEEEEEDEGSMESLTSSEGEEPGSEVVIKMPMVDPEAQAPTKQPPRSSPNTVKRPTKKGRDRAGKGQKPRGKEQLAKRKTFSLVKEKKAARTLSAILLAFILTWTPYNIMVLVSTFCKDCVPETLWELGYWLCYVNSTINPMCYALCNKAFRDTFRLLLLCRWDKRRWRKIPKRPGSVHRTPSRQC
Source text: On the day of experiment, cells were fully confluent.
To evaluate selectivity for a subtype of mAChR, in particular the M1 mAChR vs. M3 and MS mAChR, the assays were calibrated using ligands that have a combined activity, e.g. M1 agonistic and M3 antagonistic or M1 agonistic and MS antagonistic profiles, respectively. This can eliminate effects due to different receptor reserves in cell-based assays.

[10] = molecular target: T3, 5HT2B Receptor; assay: Functional study, agonist; conditions: 100 μM
Source text: as §1

[11] = molecular target: T4, Mu Receptor; assay: Functional study, agonist
Source text: as §1

[12] = molecular target: T6, M1 mAChR
[13] = molecular target: T7, sigma 1 receptors (Cavia porcellus, UniProt Q60492); assay: Displacement of tritiated-pentazocine from guinea-pig cerebral cortex; format: binding
T7 construct: displacement assay of tritiated-pentazocine from guinea-pig cerebral cortex; from tissue; host or cells: guinea-pig cerebral cortex
T7 sequence (Q60492 whole entry): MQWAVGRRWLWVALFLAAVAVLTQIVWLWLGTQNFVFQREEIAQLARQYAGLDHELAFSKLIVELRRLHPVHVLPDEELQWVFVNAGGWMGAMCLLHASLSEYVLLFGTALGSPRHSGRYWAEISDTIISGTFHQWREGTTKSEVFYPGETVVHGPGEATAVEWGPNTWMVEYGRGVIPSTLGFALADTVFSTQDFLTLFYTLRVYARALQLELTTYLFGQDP
Source text: as §1

[14] = molecular target: sigma 2 receptor (Homo sapiens, UniProt Q5BJF2); assay: Binding to sigma 2 receptor; conditions: 0.1 nM-10 μM
Sequence of sigma 2 receptor (Q5BJF2 whole entry, species assumed): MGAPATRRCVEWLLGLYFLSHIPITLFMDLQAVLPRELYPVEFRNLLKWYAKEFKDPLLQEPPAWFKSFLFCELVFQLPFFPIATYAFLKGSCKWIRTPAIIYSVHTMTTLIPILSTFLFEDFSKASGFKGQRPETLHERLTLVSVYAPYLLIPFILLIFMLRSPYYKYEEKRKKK
Source text: as §1

[15] = test system: PC12 cells; assay: Mitochondrial apoptosis pathway, Bax and Bcl-2 immunoreactivity in PC12 cells; format: cell-based, rat
Protocol: (§2) These cells were partially differentiated (2-3 days), as observed under microscope. […] The pellet (rich mitochondrial fraction) was re-suspended with 200 μl Ripa buffer and lysed by rapid passage through a syringe needle (23G) for five to six times. The lysate was then used for further evaluation.
(§3) Bands were probed using the Rabbit Bax antibody (1:1000, Cell signaling, Cat. No. 2772) and Rabbit Bcl-2 antibody (1:1000, Cell signaling, Cat. No. 2870) followed by anti rabbit IgG (H&L) HRP (1:5,000, Jackson Immuno Research, 111-035-144).

[16] = molecular target: α7 nicotinic receptor (Homo sapiens, UniProt P36544); assay: Binding to α7 nicotinic receptor; conditions: 0.1 nM-10 μM
Sequence of α7 nicotinic receptor (P36544 23-502): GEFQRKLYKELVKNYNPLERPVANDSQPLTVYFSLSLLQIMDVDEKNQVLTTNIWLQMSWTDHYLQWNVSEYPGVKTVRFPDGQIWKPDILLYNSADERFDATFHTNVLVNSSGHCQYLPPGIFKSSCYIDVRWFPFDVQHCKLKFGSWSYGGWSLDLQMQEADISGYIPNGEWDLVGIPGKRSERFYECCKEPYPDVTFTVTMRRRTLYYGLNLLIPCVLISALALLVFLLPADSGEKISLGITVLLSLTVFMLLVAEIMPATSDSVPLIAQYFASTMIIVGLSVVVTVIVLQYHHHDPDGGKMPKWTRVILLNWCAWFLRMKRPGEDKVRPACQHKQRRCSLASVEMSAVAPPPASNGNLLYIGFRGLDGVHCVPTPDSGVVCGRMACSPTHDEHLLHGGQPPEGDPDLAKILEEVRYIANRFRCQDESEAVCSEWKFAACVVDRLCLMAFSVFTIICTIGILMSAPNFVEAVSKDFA
Source text: as §1

[17] = molecular target: T6, M1 mAChR; assay: High-throughput profiling, binding at 10 μM; parameters: expressed in transfected cells
Source text: as §1

[18] = molecular target: T1, Histamine 2 Receptor; assay: Functional study, agonist or antagonist
Source text: as §1

[19] = molecular target: T2, 5HT2A receptor; assay: Functional study, agonist or antagonist
Source text: as §1

[20] = molecular target: T5, 5HT2C Receptor; assay: Functional study, agonist or antagonist
Source text: as §1

[21] = test system: GSK-3β; assay: Phospho-GSK3β (Ser 9) western blot in PC12 cells transfected with M1 mAChR, +Aβ25-35; format: cell-based, rat; conditions: 100 μM-1 nM; Aβ25-35 20 μM
Source text: (§4) Anti-GSK-3 (Santa Cruz Biotechnology) is a phosphorylation-independent monoclonal antibody reactive with both GSK-3α and GSK3β. In the same experiments the status of tau protein phosphorylation was studied using mouse anti Tau-1 monoclonal antibody (Chemicon, CAT number MAB3420), which recognizes an unphosphorylated epitope of tau.

[22] = test system: tau protein; assay: Tau-1 (unphosphorylated tau) western blot in PC12 cells transfected with M1 mAChR, +Aβ25-35; format: cell-based, rat; conditions: 100 μM-1 nM; Aβ25-35 20 μM
Source text: as §4

[23] = test system: PC12M1 cells; assay: Mitochondrial apoptosis pathway, Bax and Bcl-2 immunoreactivity in PC12M1 cells; parameters: Emax: dose or concentration left out as unconfirmed
Protocol: as §2, §3

T1 sequence (P25021 whole entry): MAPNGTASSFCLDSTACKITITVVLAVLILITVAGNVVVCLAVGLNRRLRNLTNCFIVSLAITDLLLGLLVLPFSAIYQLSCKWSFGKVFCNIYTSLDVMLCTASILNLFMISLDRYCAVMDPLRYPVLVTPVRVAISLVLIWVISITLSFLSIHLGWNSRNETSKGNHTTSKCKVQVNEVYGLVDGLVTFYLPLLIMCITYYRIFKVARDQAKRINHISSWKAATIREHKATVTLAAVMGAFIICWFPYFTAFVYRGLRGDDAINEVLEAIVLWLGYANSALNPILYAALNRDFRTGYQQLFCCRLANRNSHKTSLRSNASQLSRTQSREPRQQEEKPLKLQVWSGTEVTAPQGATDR

`C[C@@H]1SC2(CCN(C)CC2)CN1C(=O)CCc1c[nH]c2ccccc12` (single isomer, unassigned) [AF710B] was tested, and the “binding to Histamine 2 Receptor” value [1] was “binds”, the “binding to 5 HT2A Receptor” value [2] was “binds” and the “binding to M2 mAChR” value [3] was “binds”. The “binding to 5HT2B Receptor” value [4] was “binds”, the “binding to Sigma Receptor” value [5] was “binds” and the “binding to Mu Receptor” value [6] was “binds”. For the same compound, the “binding to 5HT2C Receptor” value [7] was “binds”, the “binding to 5HT Transporter” value [8] was “binds” and the “M1 agonist at 100 μM vs. carbachol (full muscarinic agonist, 100%)” value [9] was 66%. For the same compound, the “partial agonist efficacy on 5HT2B receptor” value [10] was 17%, the EC50 [11] was 13000 nM and the “effect of brucine pre-incubation on elevation of intracellular calcium ions” value [12] was “no such effect; also recorded: slight inhibition”. For the same compound, the Ki ([13]; read-out: sigma 1 receptors KH) was 1.4 nM, the Ki ([13]; read-out: sigma 1 receptors KL) was 248 nM and the “binding to sigma 2 receptor” value [14] was “does not bind”. The “Bax elevation after NGF deprivation” value [15] was “attenuated Bax elevation”, the Emax at 0.01 µM ([15]; Rattus norvegicus, PC-12, 10 nM, read-out: Aβ 25-35 induced neurotoxicity expressed as Bax/Bcl2, maximum effect) was 35% and the “binding to α7 nicotinic receptor” value [16] was “does not bind”. The “binding to M1 mAChR” value [17] was “binds”, the “agonist or antagonist activity on histamine 2 receptor” value [18] was “inactive” and the “agonist or antagonist activity on 5HT2A receptor” value [19] was “inactive”. The “agonist or antagonist activity on 5HT2C receptor” value [20] was “inactive”, the “overactivation of GSK-3β induced by Aβ25-35” value [21] was “inhibited the overactivation of GSK-3β” and the “Tau-1 staining decreased by Aβ25-35” value [22] was “restored these effects to control level”. The “Bax elevation after NGF deprivation” value ([23]; PC12M1 cells) was “attenuated Bax elevation”, the “Bcl-2, maximum effect” value ([23]; PC12M1 cells, Aβ 25-35, 1 nM) was 164±32% of control and the Emax ([23]; Rattus norvegicus, read-out: Aβ 25-35 induced neurotoxicity expressed as Bax/Bcl2, maximum effect) was 18%.

— patent publication US9034891B2, “Bicyclic heterocyclic spiro compounds” (ISRAEL INSTITUTE FOR BIOLOGICAL RESEARCH, priority 2009, dated 2015)
